The values that follow come from patent US9789096B2, “Methods and compositions for selective and targeted cancer therapy” (Board of Regents of the University of Texas System, priority 2013, dated 2017).

The test system of one data set is HCC95. Description: Cell viability dose-response, HCC95. It is filed as cell-based. The following applies: Homo sapiens, Tables 3 and 4, read-out: IC50 (uM) vs indicated non-small cell lung cancer cell line HCC95. A digest of the protocol:
(§1)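 Cells at 15% confluence in RPMI-1640 with 5% FBS and 2 mM L-glutamine were exposed to compound for 4 days. Viability was measured as ATP by CellTiter-Glo. Dose-responses used 12 points from 50 micromolar in 3-fold steps, in duplicate; IC50 from dose-response curves.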

The next data set has as its system H2122. Description: Cell viability dose-response, H2122. The settings on record: Homo sapiens; for pIC50: NCI-H2122, Table 9, competitor, read-out: IC50 to H2122 cells; for IC50: NCI-H2122, Tables 3 and 4, read-out: IC50 (uM) vs indicated non-small cell lung cancer cell line H2122. It is filed as cell-based, human. The gist of the method:
(§2)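 Viability read as total ATP (Cell Titer Glo) following 4 days' compound exposure, with IC50 derived from dose-response curves. Duplicate 12-point series, top concentration 50 micromolar with 3-fold steps, on cells seeded at 15% confluence in RPMI-1640, 5% FBS, 2 mM L-glutamine.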

The target of another data set is T1, GSK3beta (Homo sapiens, UniProt P49841).
T1 construct: purchased EMD Millipore
Description: Kinase inhibition assay (EMD Millipore), GSK3beta. It is filed as biochemical. The settings on record: 100 nM. Here is the method:
(§3) Specifically, kinase inhibition assays were performed at EMD Millipore at 1, 10 and 100 nM SW202857 and individually optimized concentrations of ATP. […] Listed kinases are the human enzyme unless indicated: mouse (m), rat (r), yeast (y).

A further data set concerns HBEC30KT. Description: Cell viability (ATP, Cell Titer Glo, 4 days), HBEC30KT. It is filed as cell-based, human. The following applies: Homo sapiens, Tables 3 and 4; read-out: HBEC30KT IC50. Background: ATP-based viability assays read luminescence as a measure of living cells.
The next data set relates to H2009. Description: Cell viability dose-response, H2009. It is filed as cell-based, human. The following applies: Homo sapiens, NCI-H2009; Tables 3 and 4; read-out: IC50 (uM) vs indicated non-small cell lung cancer cell line H2009. The gist of the method: as §1
In a further data set the test system is HCC4017. Description: Cell viability dose-response, HCC4017. It is filed as cell-based, human. The settings on record: Homo sapiens, HCC4017, Tables 3 and 4; read-out: IC50 (uM) vs indicated non-small cell lung cancer cell line HCC4017. A digest of the protocol:
as §1

A further data set deals with HCC44. Description: Cell viability dose-response, HCC44. Format: cell-based, human. The following applies: Homo sapiens, HCC44, Tables 3 and 4; read-out: IC50 (uM) vs indicated non-small cell lung cancer cell line HCC44. The gist of the method:
as §1

Another data set relates to H2073. Description: Cell viability dose-response, H2073. It is filed as cell-based, human. The following applies: Homo sapiens, NCI-H2073, Tables 3 and 4; read-out: IC50 (uM) vs indicated non-small cell lung cancer cell line H2073. The gist of the method: as §1
The subject of a further data set is H460. Description: Cell viability dose-response, H460. It is filed as cell-based. The following applies: Homo sapiens, NCI-H460; Tables 3 and 4; read-out: IC50 (uM) vs indicated non-small cell lung cancer cell line H460. A digest of the protocol: as §1
Another data set has as its system H2122 cells. Description: Metabolism by sensitive cells (HPLC/MS/MS). Format: in vitro ADME, human. Here is the method: FIGS. 9A-9D. Selective toxins selectively cross-link to SCD1 in sensitive cells and are selectively metabolized in sensitive cells. FIG. 9A. 12 NSCLC cell lines were incubated with SW208108 and processed as described in FIG. 7. […] FIG. 9B. […] FIG. 9C. […] Demethylation is the anticipated mode of metabolism. FIG. 9D. A representative benzothiazole is demethylated by sensitive cell lines. […] Values in FIGS. 9C and 9D were obtained by tandem HPLC/MS/MS.
In this context, 12 different NSCLC cell lines were treated with SW208108, lysed and clicked to a dye as previously described. […] To understand how SW208108 could selectively cross-link to SCD1 within some cell lines that expressed the enzyme but not other cell lines that expressed the same enzyme, we investigated the stability of a representative oxalamide in the presence of a sensitive and insensitive cell line. […] Similarly, a representative benzothiazole was metabolized by H2122 cells through, at least in part, the loss of the O-methyl group (FIG. 9D).

The subject of a further data set is H1819. Description: Cell viability dose-response, H1819. The settings on record: Homo sapiens, NCI-H1819, Tables 3 and 4; read-out: IC50 (uM) vs indicated non-small cell lung cancer cell line H1819. It is filed as cell-based, human. A digest of the protocol: as §2
Data set [1] can be described thus: Stability in mouse liver S9 fractions. It is filed as in vitro ADME.
For data set [2], the system named is about 300 protein kinase enzymes. Description: Kinase inhibition assays (EMD Millipore). Format: biochemical, human. Here is the method: as §3
In data set [3] the test system is 12 lung adenocarcinoma cell lines. Description: Proliferation of the panel of 12 lung adenocarcinoma cell lines. It is filed as cell-based, human. How it is done: (§4) FIG. 6A. […] Cell viability is plotted vs. compound concentration. Compound was added to cells plated at 15% confluence in 96-well plates in RPMI-1640 media supplemented with 5% Fetal Bovine Serum and 2 mM L-Glutamine. After 4 days of incubation, ATP levels were measured using Cell Titer Glo (Promega). Data are presented as the average of 2 replicates ±SEM.
To discover selective agents, twelve cell lines of diverse genotype were selected for analysis. 108 lung cancer cell lines were initially clustered into six groups based on mRNA expression of genes that underwent frequent copy number variation. Two cell lines were chosen from each group for high throughput chemical screening. All 12 of the chosen cell lines were derived from lung adenocarcinomas, eliminating both lineage and histology as confounders. None of the cell lines chosen for screening harbored EGFR mutations or ALK rearrangements, so that the final set represented a collection of diverse lung adenocarcinoma genotypes for which there are no targeted therapy.
The proliferative impact of each compound in the library was assayed by analyzing total ATP four days after administration of 2.5 μM in a single well. This first pass yielded 15,843 toxins defined as a compound where ATP levels were […] three standard deviations below the mean for at least one cell line. For each of these putative toxins, the average effect on proliferation was retested on each cancer cell line and a non-cancerous immortalized HBEC line (control), yielding a confirmation dataset.
(§5) In addition, N-acyl benzothiazoles was also discovered, such as 4-amino-N-(6-methoxybenzo[d]thiazol-2-yl)benzamide (ATB). We compared the proliferation of 12 lung adenocarcinoma cell lines and three HBEC lines after the addition of ATB.
(§6) We subsequently synthesized various derivatives that are both selective and potent (Tables 1 and 2). One leading candidate is a benzothiazole, SW202857, that inhibits proliferation in three of 12 adenocarcinoma cell lines at concentrations less than 10 nM.

The subject of another data set is H1993. Description: Cell viability dose-response, H1993. The settings on record: Homo sapiens, NCI-H1993; Tables 3 and 4; read-out: IC50 (uM) vs indicated non-small cell lung cancer cell line H1993. Format: cell-based. The gist of the method: as §1
Another data set concerns H1155. Description: Cell viability dose-response, H1155. Format: cell-based. The settings on record: Homo sapiens, NCI-H1155; Tables 3 and 4; read-out: IC50 (uM) vs indicated non-small cell lung cancer cell line H1155. A digest of the protocol: as §1
Another data set has as its system H1395. Description: Cell viability dose-response, H1395. It is filed as cell-based. The settings on record: Homo sapiens, NCI-H1395; Tables 3 and 4; read-out: IC50 (uM) vs indicated non-small cell lung cancer cell line H1395. A digest of the protocol: as §1
The test system of data set [4] is 3 human bronchial epithelial (HBEC) cell lines. Description: Vitality of human bronchial epithelial (HBEC) cell lines. Format: cell-based. The following applies: at 10 μM. How it is done:
as §5, §6

Another data set has as its system H2122 xenografts. Description: In vivo efficacy, H2122 xenografts in NOD/SCID mice. The settings on record: 25 mg/kg IP twice daily. Also noted: species or system mouse. How it is done: (§7) FIG. 6C. […] NOD/SCID mice were injected with either H2122 (sensitive) or H1155 (insensitive) cells subcutaneously on day 0. When tumors reached 200 cubic mm, treatment with SW203668 (listed as A2) or vehicle was initiated (as indicated by the arrow) with twice daily doses of 25 mg/kg, IP. Tumor size was measured every 3 days for the duration of the study. Data are plotted as mean±SEM; n=12 for each group.

For another data set, the system named is H1155 xenografts. Description: In vivo efficacy, H1155 xenografts in NOD/SCID mice. Also noted: species or system mouse. The settings on record: 25 mg/kg IP twice daily. How it is done: as §7
Data set [5] is described as follows: ADME for xenograft studies. Format: in vivo.
The next data set has as its system HopS62. Description: Cell viability dose-response, HopS62. It is filed as cell-based. The settings on record: Homo sapiens; Table 4; read-out: IC50 (uM) vs indicated non-small cell lung cancer cell line HopS62. Here is the method:
as §4
Selectivity may be measured by the half maximal inhibitory concentration (IC50), which, as used herein, is a measure of the effectiveness of a compound in killing cells. This quantitative measure indicates how much of a particular compound is needed to kill a particular cell population by half (e.g., as indicated by the amount of ATP). […] The IC50 can be determined by constructing a dose-response curve. The lower the IC50, the higher the potency, and the greater the difference between IC50 values for different cell lines (e.g., sensitive lines vs. insensitive lines, and sensitive lines vs. normal lines) the greater the selectivity.
With this information, we synthesized and tested a series of small molecules derived in conception from the oxalamide and chromone scaffold including N-acyl ureas, as shown in Tables 6-8. Each compound was tested in a 12-point dose-response study starting at 50 micromolar and decreasing in 3-fold increments to sub-nanomolar concentrations, in duplicate. […]

SMILES strings stand for the structures. pIC50: −log10 of the molar value. Where two headings read alike, the source gives them in different places.

As usually defined, the IC50 is the concentration at which inhibition is half-maximal. Broadly, the pIC50 is −log10 of the IC50, conventionally taken in molar units. By inhibition is commonly meant the drop in the measured response relative to a control, in per cent. Read a low inhibition as a weak effect.

T1 sequence (P49841 whole entry): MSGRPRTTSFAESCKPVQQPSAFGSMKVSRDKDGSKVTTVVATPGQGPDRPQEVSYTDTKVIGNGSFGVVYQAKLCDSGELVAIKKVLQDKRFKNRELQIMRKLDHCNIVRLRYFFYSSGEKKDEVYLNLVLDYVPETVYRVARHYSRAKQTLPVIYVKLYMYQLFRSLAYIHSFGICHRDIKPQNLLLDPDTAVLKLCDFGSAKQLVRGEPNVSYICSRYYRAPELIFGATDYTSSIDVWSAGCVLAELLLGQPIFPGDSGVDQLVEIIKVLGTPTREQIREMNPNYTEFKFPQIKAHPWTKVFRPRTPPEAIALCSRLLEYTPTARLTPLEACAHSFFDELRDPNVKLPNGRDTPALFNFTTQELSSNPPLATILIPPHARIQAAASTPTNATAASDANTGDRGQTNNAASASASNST

As to `COc1ccc2nc(NC(=O)c3ccc(C(=O)c4ccccc4)cc3)sc2c1` [SW202857-1, 4-benzoyl-N-(6-methoxybenzo[d]thiazol-2-yl)benzamide], the 50% inhibitory concentration (IC50) in the data set with HCC95 is 10.8 µM; in the data set on H2122, 0.00839 µM; with H2009, 3.16 µM; in the data set on HCC4017, 32.6 µM; with HCC44 it was 0.0236 µM; in the data set on H2073 it was 0.0185 µM. The 50% inhibitory concentration (IC50) in the data set on H460 came out at 0.046 µM; in the data set with H1819, 42.7 µM; in the data set with H1993, 21.3 µM; in the data set with H1155 it was 22.3 µM; with H1395, 31.8 µM. Moreover, the results for the pIC50 in the data set with H2122 and in the data set with HBEC30KT were 8.03 and 4.64, respectively. On GSK3beta, this compound displayed an inhibition at 0.1 µM of 21%. The “metabolism by sensitive H2122 cells” value with H2122 cells is listed as “demethylated”. Further, in [1], the “stability in the presence of mouse liver S9 fractions” value was “chemically stable”. The “inhibition of about 300 protein kinase enzymes in vitro” value in data set [2] (0.10 μM) is “failed to inhibit”. The “inhibition, all other kinases” value in data set [2] (highest concentration (100 nM)) is given as not above 15%. Moreover, the “toxic concentration against four sensitive cell lines” value in data set [3] (four sensitive cell lines) was “less than 50 nM”. The “concentration that inhibits proliferation in three of 12 adenocarcinoma cell lines” value in [3] (three sensitive lines) was “less than 10 nM”. For the same compound, the “toxic effect on the other 9 adenocarcinoma cell lines” value in data set [3] (up to 10 μM) was “no toxic effect”. In data set [4], the “vitality of 3 human bronchial epithelial (HBEC) cell lines” value is given as “nor does it affect the vitality”.
For the compound `COc1ccc2nc(NC(=O)c3ccc(C(N)c4ccccc4)cc3)sc2c1` (stereo not drawn) [SW203668], in the data set with H2122, the IC50 is 0.035 µM. Also, in the data set on H2122 xenografts, the “tumor growth inhibition in H2122 xenografts” value is “selective toxicity”. The “tumor growth inhibition in H1155 xenografts” value with H1155 xenografts is recorded as “but not H1155 xenografts”. Further, the “absorption, distribution, metabolism, and excretion (ADME)” value in [5] is “appropriate absorption, distribution, metabolism, and excretion”.
With `O=C(Nc1nc2ccccc2o1)c1ccc(C(=O)c2ccccc2)cc1` [SW208665-1], the pIC50 in the data set on H2122 was 6.10. The IC50 in the data set with H2122 is 42.7 µM; with HCC44 it was 2.14 µM; in the data set with HopS62 it was 1.93 µM.
For the compound `O=C(Nc1nc2c(s1)CCC2)c1ccc(C(=O)c2ccccc2)cc1` [SW208666-1], the concentration for half-maximal inhibition (IC50) was found to be 0.26 µM in the data set with H2122, 3.52 µM in the data set on HCC44 and 0.09 µM in the data set on HopS62.
